≈ marks a conversion by molar mass, not a printed value. Where “and” joins values, the source holds several entries; their conditions need not be identical. Identical values can stand only once. Blank lines part the entries; values can stand above or below the molecule they belong to.
Legend:
Test in all cases: ≥ marks a high value that may be exact or a test limit, other limits are often not marked, values filed in µg/mL are converted to µM
[1] = test system: Escherichia coli ATCC 25922
Micrococcus luteus = test system: Micrococcus luteus
[2] = test system: Pseudomonas aeruginosa ATCC 15692
Saccharomyces cerevisiae = test system: Saccharomyces cerevisiae
[3] = test system: Staphylococcus aureus ATCC 25923
[4] = test system: Candida albicans ATCC 36232
[5] = test system: Escherichia coli ATCC 2592
[6] = test system: Pseudomonas aeruginosa ATCC 9027
[7] = test system: Staphylococcus aureus ATCC 6538
[8] = test system: Acinetobacter baumannii ATCC 19606
Bacillus subtilis 168 = test system: Bacillus subtilis 168
[9] = test system: Bacillus subtilis ATCC 23857
[10] = test system: Escherichia coli DH5alpha
[11] = test system: Klebsiella pneumoniae ATCC 700603
[12] = test system: Pseudomonas aeruginosa ATCC 27853
[13] = test system: Bacillus subtilis ATCC 6633
[14] = test system: Candida albicans ATCC 20032
Escherichia coli W160-37 = test system: Escherichia coli W160-37
Staphylococcus aureus = test system: Staphylococcus aureus
[15] = test system: Micrococcus luteus ATCC 9341
[16] = test system: Erwinia amylovora PMV 6076
[17] = test system: Pseudomonas syringae pv. actinidiae Psa3700.1.1
[18] = test system: Pseudomonas syringae pv. syringae EPS 94
[19] = test system: Xanthomonas arboricola pv. pruni CFBP 5563
[20] = test system: Xanthomonas campestris pv. Vesicatoria 2133-2
[21] = test system: Xanthomonas fragariae Xf349-9A
[22] = test system: Staphylococcus aureus NCTC 8325
[23] = test system: Pseudomonas aeruginosa H1001

MIC [4]: ≥ 164 µM
MIC [5]: ≥ 164 µM
MIC [6]: 81.9 µM and 164 µM
MIC [7]: 41 µM and 81.9 µM
Compound: CC(C)C[C@H](NC(=O)[C@H](CS)NC(=O)[C@H](CCCCN)NC(=O)[C@H](C)NC(=O)[C@H](C)NC(=O)[C@H](CS)NC(=O)[C@H](C)NC(=O)[C@H](C)NC(=O)[C@@H](N)CCCCN)C(=O)N[C@@H](Cc1c[nH]c2ccccc12)C(=O)N[C@@H](CCCN=C(N)N)C(N)=O [KAACAAKCLWR]

MIC (Escherichia coli W160-37): 31 µM (≈ 41.6 µg/mL)
MIC (Staphylococcus aureus): 8 µM (≈ 10.7 µg/mL)
Compound: CC[C@H](C)[C@H](NC(=O)[C@H](Cc1c[nH]c2ccccc12)NC(=O)[C@H](CCCCN)NC(=O)[C@H](CC(C)C)NC(=O)[C@H](Cc1ccccc1)NC(=O)[C@H](CCCCN)NC(=O)[C@H](CC(C)C)NC(=O)[C@H](CC(C)C)NC(=O)[C@H](CCCCN)NC(=O)[C@@H]1CCCN1)C(=O)NCC(=O)O [PKLLKFLKWIG]

MIC [4]: 2.08 µM and 1.47 µM and 4.15 µM
MIC [15]: 2.08 µM (≈ 3.13 µg/mL)
MIC [7]: 2.08 µM (≈ 3.13 µg/mL)
Compound: CC(C)[C@H](NC(=O)[C@H](CCCCN)NC(=O)[C@H](Cc1ccccc1)NC(=O)[C@@H](NC(=O)[C@@H](NC(=O)[C@H](CCCCN)NC(=O)[C@@H](N)CCCCN)C(C)C)C(C)C)C(=O)N[C@@H](CCCCN)C(=O)N[C@@H](Cc1ccccc1)C(=O)N[C@@H](CCCCN)C(=O)N[C@@H](CCCCN)C(=O)N[C@@H](CCCCN)C(N)=O [KKVVFKVKFKKK]

MIC (Escherichia coli W160-37): ≥ 40.8 µM
Compound: CC[C@H](C)[C@H](NC(=O)[C@H](CC(C)C)NC(=O)[C@H](C)NC(=O)[C@H](CC(C)C)NC(=O)[C@@H](N)Cc1ccccc1)C(=O)N[C@@H](CC(C)C)C(=O)N[C@@H](CCCN=C(N)N)C(=O)N[C@@H](CCCCN)C(=O)N[C@H](C(=O)N[C@H](C(=O)N[C@H](C(=O)N[C@@H](C)C(=O)N[C@@H](CC(C)C)C(N)=O)[C@@H](C)O)C(C)C)[C@@H](C)CC [FLALILRKIVTAL]

MIC [16]: ≥ 50 µM
MIC [17]: 17.7 µM (≈ 22.4 µg/mL)
MIC [18]: ≥ 50 µM
MIC [19]: 17.7 µM (≈ 22.4 µg/mL)
MIC [20]: ≥ 50 µM
MIC [21]: ≥ 50 µM
Compound: CSCC[C@H](NC(=O)CNC(=O)[C@@H](NC(=O)[C@H](CO)NC(=O)[C@H](Cc1ccccc1)NC(=O)[C@@H](NC(=O)[C@H](Cc1ccccc1)NC(=O)[C@H](Cc1ccc(O)cc1)NC(=O)[C@H](CO)NC(=O)[C@H](CCC(=O)O)NC(=O)[C@@H](N)[C@@H](C)O)C(C)C)C(C)C)C(N)=O [TESYFVFSVGM]

MIC [23]: ≥ 85.7 µM
Compound: CC[C@H](C)[C@H](NC(=O)[C@H](C)NC(=O)[C@@H](N)CC(N)=O)C(=O)N[C@@H](CCCCN)C(=O)N[C@@H](CC(C)C)C(=O)N[C@@H](CC(C)C)C(=O)N[C@@H](CS)C(=O)N[C@@H](CCCN=C(N)N)C(=O)N[C@H](C(=O)N[C@@H](Cc1cnc[nH]1)C(=O)O)C(C)C [NAIKLLCRVH]

MIC [23]: ≥ 178 µM
Compound: NCCCC[C@H](NC(=O)[C@H](CCCN=C(N)N)NC(=O)[C@H](Cc1c[nH]c2ccccc12)NC(=O)[C@H](CCCCN)NC(=O)[C@H](Cc1c[nH]c2ccccc12)NC(=O)[C@H](Cc1c[nH]c2ccccc12)NC(=O)[C@H](Cc1cnc[nH]1)NC(=O)[C@H](Cc1ccccc1)NC(=O)[C@@H](N)CCCCN)C(N)=O [KFHWWKWRK]

Further lines, the molecule ahead of its results:

Compound: CC[C@H](C)[C@H](NC(=O)[C@H](CC(C)C)NC(=O)[C@H](CCCCN)NC(=O)[C@H](CO)NC(=O)[C@H](C)NC(=O)CNC(=O)[C@H](CCCCN)NC(=O)[C@H](CC(C)C)NC(=O)[C@H](C)NC(=O)[C@H](CCSC)NC(=O)[C@H](CCCCN)NC(=O)[C@H](C)NC(=O)[C@H](Cc1ccccc1)NC(=O)[C@@H](NC(=O)CNC(=O)[C@H](Cc1ccccc1)NC(=O)[C@H](CC(C)C)NC(=O)[C@@H](N)CO)[C@@H](C)O)C(=O)N1CCC[C@H]1C(=O)N[C@@H](Cc1cnc[nH]1)C(=O)N[C@@H](CC(C)C)C(=O)N[C@@H](CC(C)C)C(=O)N1CCC[C@H]1C(=O)N[C@@H](CO)C(=O)N[C@@H](CCCN=C(N)N)C(=O)N[C@@H](CCC(N)=O)C(=O)N[C@@H](CCC(N)=O)C(=O)O [SLFGTFAKMALKGASKLIPHLLPSRQQ]
MIC [1]: 2.83 µM
MIC (Micrococcus luteus): 0.5 µM
MIC [2]: 5.66 µM
MIC (Saccharomyces cerevisiae): 16 µM
MIC [3]: 1 µM

Compound: CC[C@H](C)[C@H](NC(=O)[C@H](CCCCN)NC(=O)[C@H](CCCCN)NC(=O)[C@@H](NC(=O)[C@@H](NC(=O)[C@H](CCCCN)NC(=O)[C@H](CCCCN)NC(=O)[C@@H](NC(=O)[C@@H](NC(=O)[C@H](CCCCN)NC(=O)[C@H](CCCCN)NC(=O)[C@@H](NC(=O)[C@@H](NC(=O)[C@H](CCCCN)NC(=O)[C@H](CCCCN)NC(=O)[C@@H](NC(=O)[C@@H](NC(=O)CN)[C@@H](C)CC)[C@@H](C)CC)[C@@H](C)CC)[C@@H](C)CC)[C@@H](C)CC)[C@@H](C)CC)[C@@H](C)CC)[C@@H](C)CC)C(N)=O [GIIKKIIKKIIKKIIKKI]
MIC [8]: 4 µM (≈ 8.47 µg/mL)
MIC (Bacillus subtilis 168): 0.5 µM (≈ 1.06 µg/mL)
MIC [9]: 2 µM (≈ 4.24 µg/mL)
MIC [1]: 8 µM (≈ 16.9 µg/mL)
MIC [10]: 2 µM (≈ 4.24 µg/mL)
MIC [11]: 8 µM (≈ 16.9 µg/mL)
MIC [12]: 4 µM (≈ 8.47 µg/mL)
MIC [3]: 4 µM (≈ 8.47 µg/mL)

Compound: CC[C@H](C)[C@H](N)C(=O)N[C@@H](CO)C(=O)NCC(=O)N1CCC[C@H]1C(=O)N[C@H](C(=O)N[C@@H](CC(C)C)C(=O)NCC(=O)N[C@@H](CC(C)C)C(=O)N[C@H](C(=O)NCC(=O)N[C@@H](CC(N)=O)C(=O)N[C@@H](C)C(=O)N[C@@H](CC(C)C)C(=O)NCC(=O)NCC(=O)N[C@@H](CC(C)C)C(=O)N[C@H](C(=O)N[C@@H](CCCCN)C(=O)N[C@@H](CCCCN)C(=O)N[C@H](C(N)=O)[C@@H](C)CC)[C@@H](C)CC)C(C)C)C(C)C [ISGPVLGLVGNALGGLIKKI]
MIC [13]: ≥ 52.1 µM
MIC [14]: ≥ 52.1 µM
MIC [1]: > 52.1 µM
MIC [3]: > 52.1 µM

Compound: CC[C@H](C)[C@H](N)C(=O)N[C@@H](CC(C)C)C(=O)NCC(=O)N1CCC[C@H]1C(=O)N[C@H](C(=O)N[C@H](C(=O)N[C@@H](CO)C(=O)N[C@H](C(=O)N[C@H](C(=O)NCC(=O)N[C@@H](CC(N)=O)C(=O)N[C@H](C(=O)N[C@@H](CC(C)C)C(=O)NCC(=O)NCC(=O)N[C@@H](CC(C)C)C(=O)N[C@@H](CC(C)C)C(=O)N[C@@H](CCCCN)C(=O)N[C@@H](CC(N)=O)C(=O)N[C@@H](CC(C)C)C(N)=O)C(C)C)[C@@H](C)CC)[C@@H](C)O)[C@@H](C)CC)C(C)C [ILGPVISTIGNVLGGLLKNL]
MIC [13]: ≥ 50.2 µM
MIC [14]: ≥ 50.2 µM
MIC [1]: > 50.2 µM
MIC [3]: > 50.2 µM

Compound: CC[C@H](C)[C@H](NC(=O)[C@H](C)NC(=O)[C@H](CCC(=O)O)NC(=O)[C@H](CC(C)C)NC(=O)CNC(=O)CNC(=O)[C@H](CCCCN)NC(=O)[C@H](C)NC(=O)[C@H](Cc1ccccc1)NC(=O)[C@H](CCCCN)NC(=O)[C@H](CCCCN)NC(=O)[C@H](CC(C)C)NC(=O)CNC(=O)CNC(=O)[C@H](CC(C)C)NC(=O)[C@@H](NC(=O)[C@@H](NC(=O)[C@H](CO)NC(=O)[C@H](Cc1c[nH]c2ccccc12)NC(=O)[C@@H](NC(=O)CN)C(C)C)[C@@H](C)O)C(C)C)C(=O)N[C@H](C(=O)N[C@@H](CC(N)=O)C(=O)N1CCC[C@H]1C(=O)N[C@@H](CCCCN)C(=O)O)C(C)C [GVWSTVLGGLKKFAKGGLEAIVNPK]
MIC [1]: 5.66 µM (≈ 14.5 µg/mL)
MIC (Micrococcus luteus): 0.5 µM (≈ 1.29 µg/mL)
MIC [2]: ≥ 32 µM
MIC (Saccharomyces cerevisiae): ≥ 32 µM
MIC [3]: 45.3 µM (≈ 116 µg/mL)
MIC [22]: ≥ 100 µM

Compound: CC[C@H](C)[C@H](N)C(=O)N[C@@H](CC(C)C)C(=O)N1CCC[C@H]1C(=O)N[C@@H](CC(C)C)C(=O)N[C@@H](CCCCN)C(=O)N[C@@H](CC(C)C)C(=O)N1CCC[C@H]1C(=O)N[C@@H](Cc1c[nH]c2ccccc12)C(=O)N[C@@H](CC(C)C)C(=O)N1CCC[C@H]1C(=O)N[C@@H](CC(C)C)C(=O)N[C@@H](CCCN=C(N)N)C(=O)N[C@@H](CCCN=C(N)N)C(N)=O [ILPLKLPWLPLRR]
MIC (Escherichia coli W160-37): 12.4 µM (≈ 20 µg/mL)
MIC (Staphylococcus aureus): 6.19 µM (≈ 9.99 µg/mL)

Source: DBAASP
